According to ChEMBL document CHEMBL1127963, “Vasoactive eicosanoids: Synthesis of 12,20-dihydroxyeicosa-5(Z),8(Z),10(E),14(Z)-tetraenoic acid via a novel chiral bis-lactol” (1994):

Species on record: Canis familiaris
Assay: Compound was tested relaxation of contracted coronary arteries of canine at 5 x 10-e M (p<0.01)
Type: functional, Canis lupus familiaris

O=C(O)CCC/C=C\C/C=C\C=C\C(O)C/C=C\CCCCCO (stereo unspecified)
Relation: 48%
